Measurements published in paper PMC2248166, “Quantitative peptide binding motifs for 19 human and mouse MHC class I molecules derived using positional scanning combinatorial peptide libraries” (Immunome Research, 2008).
Where a SMILES comes first, the peptide text is derived from it.

What was measured:
Assay in all cases: biochemical
Assay type in all cases: binding
HLA A*3001 = HLA A*3001 (Homo sapiens, UniProt P04439, D140H/D185E/E176W/F33S/G80R/H175R/K168Q/R138E/R41S)
HLA B*1501 = HLA B*1501 (Homo sapiens, UniProt P01889, A329T/A93T/A95T/C349S/D201E/D98Y/E187L/E204Q/E69M/E70A/K202T/N87E/Q94N/R155S/R180W/S121R/S35A/S48A/V306I/V36M/Y140S/Y91S)
HLA B*1503 = HLA B*1503 (Homo sapiens, UniProt P01889, A329T/A93T/A95T/C349S/D201E/D98Y/E187L/E204Q/K202T/N87E/Q94N/R155S/R180L/S121R/S35A/V306I/V36M/Y140S/Y91S)
HLA A*3201 = HLA A*3201 (Homo sapiens, UniProt P04439, A270S/D101S/D185E/E176V/E277Q/F133L/G103R/G107R/G231S/H175R/I121M/I218V/I322F/K168Q/L105A/L300P/L318F/M331R/P208A/P217A/Q94H/R106L/R138Q/S129P/T104I/T323A/T345S/V100E/V321M/V358M)

HLA A*3001, sequence (P04439 25-365 limits assumed, stated change not applied): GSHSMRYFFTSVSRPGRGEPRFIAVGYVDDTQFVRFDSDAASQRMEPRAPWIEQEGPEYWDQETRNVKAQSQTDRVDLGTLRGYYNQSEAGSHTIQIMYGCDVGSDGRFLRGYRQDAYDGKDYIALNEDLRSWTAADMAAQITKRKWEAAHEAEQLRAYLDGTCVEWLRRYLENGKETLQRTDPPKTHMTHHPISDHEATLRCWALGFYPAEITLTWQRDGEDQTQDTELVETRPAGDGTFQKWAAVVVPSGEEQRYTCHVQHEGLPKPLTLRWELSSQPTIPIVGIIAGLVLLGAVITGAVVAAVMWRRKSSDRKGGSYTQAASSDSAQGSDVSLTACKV

Work on `CC[C@H](C)[C@H](NC(=O)[C@H](Cc1ccc(O)cc1)NC(=O)[C@H](C)NC(=O)[C@H](C)NC(=O)[C@H](Cc1c[nH]cn1)NC(=O)[C@H](CO)NC(=O)[C@@H](N)CCCCN)C(=O)N[C@@H](CC(=O)O)C(=O)N[C@@H](Cc1ccc(O)cc1)C(=O)O` [3102.0209] (H-KSHAAYIDY-OH) yielded an IC50 (HLA A*3001) of 12 nM, an IC50 (HLA B*1501) of 1.8 nM and an IC50 (HLA B*1503) of 1.7 nM.
For `CC(C)C[C@H](NC(=O)[C@@H](NC(=O)[C@H](CO)NC(=O)[C@H](CCCCN)NC(=O)[C@@H](NC(=O)[C@@H](N)Cc1c[nH]cn1)C(C)C)[C@@H](C)O)C(=O)N[C@@H](CC(N)=O)C(=O)N[C@@H](CC(N)=O)C(=O)N[C@@H](C)C(=O)O` [3102.0217] (H-HVKSTLNNA-OH), the IC50 (HLA A*3001) was 1.2 nM and the IC50 (HLA B*1501) was 367 nM.
Work on `CC[C@H](C)[C@H](NC(=O)[C@H](CO)NC(=O)[C@@H](N)CCCCN)C(=O)N[C@@H](CCC(=O)O)C(=O)N[C@@H](CCC(N)=O)C(=O)N[C@@H](Cc1c[nH]cn1)C(=O)N1CCC[C@H]1C(=O)N[C@H](C(=O)N[C@H](C(=O)O)C(C)C)C(C)C` [3102.0246] (H-KSIEQHPVV-OH) yielded an IC50 (HLA A*3001) of 2.7 nM and an IC50 (HLA B*1501) of 71 nM.
With `CC[C@H](C)[C@H](NC(=O)[C@H](Cc1ccccc1)NC(=O)[C@H](CC(C)C)NC(=O)[C@@H](NC(=O)[C@@H](N)CC(C)C)[C@@H](C)CC)C(=O)N[C@@H](CO)C(=O)N[C@H](C(=O)N1CCC[C@H]1C(=O)N[C@@H](Cc1ccccc1)C(=O)O)[C@@H](C)CC` [3102.0290] (H-LILFISIPF-OH) the IC50 (HLA A*3201) was 25 nM.
Work on `CC[C@H](C)[C@H](NC(=O)[C@H](CCCCN)NC(=O)[C@H](Cc1ccccc1)NC(=O)[C@H](CCSC)NC(=O)[C@@H](N)[C@@H](C)O)C(=O)N[C@H](C(=O)N[C@@H](Cc1ccc(O)cc1)C(=O)N[C@@H](CO)C(=O)N[C@@H](CC(C)C)C(=O)O)C(C)C` [3102.0291] (H-TMFKIVYSL-OH) yielded an IC50 (HLA A*3201) of 0.92 nM.
Work on `CC(C)C[C@H](NC(=O)[C@@H](NC(=O)[C@H](Cc1ccc(O)cc1)NC(=O)[C@H](CCCNC(=N)N)NC(=O)[C@H](CC(C)C)NC(=O)[C@H](CCC(=O)O)NC(=O)[C@H](Cc1ccc(O)cc1)NC(=O)[C@@H](NC(=O)[C@@H](N)C(C)C)[C@@H](C)O)[C@@H](C)O)C(=O)O` [3102.0294] (H-VTYELRYTL-OH) yielded an IC50 (HLA A*3201) of 12 nM.
Work on `CC(C)C[C@H](NC(=O)CNC(=O)[C@H](C)NC(=O)[C@@H](NC(=O)[C@H](C)N)[C@@H](C)O)C(=O)N[C@@H](Cc1c[nH]cn1)C(=O)N[C@@H](CC(C)C)C(=O)NCC(=O)N[C@@H](Cc1ccccc1)C(=O)O` [3102.0295] (H-ATAGLHLGF-OH) yielded an IC50 (HLA A*3201) of 1.7 nM.
`CC[C@H](C)[C@H](NC(=O)[C@H](Cc1ccccc1)NC(=O)[C@@H](NC(=O)[C@H](CCC(N)=O)NC(=O)[C@@H](N)CCCNC(=N)N)[C@@H](C)CC)C(=O)N[C@@H](Cc1c[nH]cn1)C(=O)N[C@@H](Cc1ccc(O)cc1)C(=O)N[C@@H](CO)C(=O)N[C@H](C(=O)O)C(C)C` [3102.0296] (H-RQIFIHYSV-OH) gave an IC50 (HLA A*3201) of 1 nM.
Work on `CC[C@H](C)[C@H](NC(=O)[C@@H](NC(=O)[C@H](CC(C)C)NC(=O)[C@H](CO)NC(=O)[C@H](CCC(N)=O)NC(=O)[C@H](Cc1ccccc1)NC(=O)[C@H](CC(=O)O)NC(=O)[C@H](CCC(N)=O)NC(=O)[C@H](C)N)[C@@H](C)O)C(=O)O` [3102.0299] (H-AQDFQSLTI-OH) yielded an IC50 (HLA A*3201) of 68 nM.
`CC[C@H](C)[C@H](N)C(=O)N[C@@H](CC(C)C)C(=O)N[C@@H](Cc1ccc(O)cc1)C(=O)N[C@@H](Cc1ccc(O)cc1)C(=O)N[C@@H](CC(C)C)C(=O)N[C@@H](CO)C(=O)N[C@@H](C)C(=O)N[C@@H](CCCCN)C(=O)N[C@H](C(=O)O)[C@@H](C)CC` [3102.0300] (H-ILYYLSAKI-OH) was tested, and the IC50 (HLA A*3201) was 8.9 nM.
`CC(C)C[C@H](NC(=O)[C@H](Cc1ccc(O)cc1)NC(=O)[C@H](CC(N)=O)NC(=O)[C@H](Cc1ccccc1)NC(=O)[C@H](Cc1c[nH]c2ccccc12)NC(=O)[C@H](CC(C)C)NC(=O)[C@H](CC(C)C)NC(=O)[C@@H](N)CC(C)C)C(=O)N[C@@H](Cc1ccccc1)C(=O)O` [3102.0301] (H-LLLWFNYLF-OH) was tested, and the IC50 (HLA A*3201) was 1.5 nM.
For `CC[C@H](C)[C@H](NC(=O)[C@H](Cc1ccccc1)NC(=O)[C@@H](NC(=O)[C@@H](NC(=O)[C@@H](N)CO)[C@@H](C)CC)[C@@H](C)CC)C(=O)N[C@@H](CC(N)=O)C(=O)N[C@@H](Cc1ccc(O)cc1)C(=O)N[C@H](C(=O)N[C@@H](CCSC)C(=O)O)[C@@H](C)O` [3102.0303] (H-SIIFINYTM-OH), the IC50 (HLA A*3201) was 6.5 nM.
Work on `CC[C@H](C)[C@H](NC(=O)[C@H](CO)NC(=O)[C@H](CO)NC(=O)[C@@H](NC(=O)[C@H](CO)NC(=O)[C@H](Cc1ccccc1)NC(=O)[C@@H](NC(=O)[C@@H](N)CO)[C@@H](C)O)[C@@H](C)CC)C(=O)N[C@@H](Cc1ccccc1)C(=O)O` [3102.0305] (H-STFSISSIF-OH) yielded an IC50 (HLA A*3201) of 1.1 nM.
Molecule `CSCC[C@H](NC(=O)[C@H](Cc1ccc(O)cc1)NC(=O)[C@H](CCCCN)NC(=O)[C@H](CO)NC(=O)[C@H](Cc1ccccc1)NC(=O)[C@H](C)NC(=O)[C@@H](N)Cc1ccc(O)cc1)C(=O)N[C@@H](CO)C(=O)N[C@@H](Cc1ccccc1)C(=O)O` [3102.1180] (H-YAFSKYMSF-OH) has an IC50 (HLA B*1501) of 9 nM and an IC50 (HLA B*1503) of 1.8 nM.
In the case of `C[C@@H](O)[C@H](NC(=O)[C@H](CCCCN)NC(=O)[C@H](Cc1ccc(O)cc1)NC(=O)[C@H](CCC(N)=O)NC(=O)[C@@H](N)CCC(=O)O)C(=O)N[C@@H](CCC(=O)O)C(=O)N[C@@H](CO)C(=O)N[C@@H](Cc1ccccc1)C(=O)N[C@@H](Cc1ccccc1)C(=O)O` [3102.1224] (H-EQYKTESFF-OH), the IC50 (HLA B*1501) is reported as 6.6 nM and the IC50 (HLA B*1503) is reported as 1.8 nM.
Molecule `CSCC[C@H](NC(=O)[C@H](Cc1c[nH]cn1)NC(=O)[C@H](CCC(N)=O)NC(=O)CNC(=O)[C@@H]1CCCN1C(=O)[C@@H]1CCCN1C(=O)[C@H](C)NC(=O)[C@H](CO)NC(=O)[C@@H](N)CS)C(=O)O` [3102.1226] (H-CSAPPGQHM-OH) has an IC50 (HLA B*1501) of 53 nM and an IC50 (HLA B*1503) of 24 nM.
Work on `CC(C)[C@H](NC(=O)[C@H](Cc1ccccc1)NC(=O)CNC(=O)[C@H](Cc1c[nH]cn1)NC(=O)[C@H](CC(N)=O)NC(=O)[C@H](CCC(N)=O)NC(=O)[C@@H](N)Cc1ccc(O)cc1)C(=O)N[C@@H](CO)C(=O)N[C@@H](Cc1ccccc1)C(=O)O` [3102.1231] (H-YQNHGFVSF-OH) yielded an IC50 (HLA B*1501) of 0.17 nM and an IC50 (HLA B*1503) of 2.4 nM.
Work on `CC(C)C[C@H](NC(=O)[C@@H]1CCCN1C(=O)[C@H](CC(N)=O)NC(=O)[C@H](C)NC(=O)[C@@H](N)Cc1ccccc1)C(=O)N[C@@H](CO)C(=O)N[C@@H](CC(N)=O)C(=O)N1CCC[C@H]1C(=O)N[C@@H](Cc1ccccc1)C(=O)O` [3102.1245] (H-FANPLSNPF-OH) yielded an IC50 (HLA B*1501) of 1.7 nM and an IC50 (HLA B*1503) of 1.9 nM.
In the case of `CC[C@H](C)[C@H](NC(=O)[C@H](CCC(N)=O)NC(=O)[C@@H](N)CO)C(=O)N[C@@H](CCC(=O)O)C(=O)N[C@H](C(=O)NCC(=O)N[C@H](C(=O)N1CCC[C@H]1C(=O)N[C@@H](Cc1ccccc1)C(=O)O)[C@@H](C)O)[C@@H](C)O` [3102.1253] (H-SQIETGTPF-OH), the IC50 (HLA B*1501) is reported as 0.61 nM and the IC50 (HLA B*1503) is reported as 1.3 nM.
Work on `CC[C@H](C)[C@H](NC(=O)[C@H](Cc1c[nH]cn1)NC(=O)[C@H](CCCCN)NC(=O)[C@H](CC(N)=O)NC(=O)[C@H](CCSC)NC(=O)[C@@H](N)Cc1ccccc1)C(=O)N[C@@H](CC(C)C)C(=O)N[C@@H](CO)C(=O)N[C@@H](Cc1ccc(O)cc1)C(=O)O` [3102.1258] (H-FMNKHILSY-OH) yielded an IC50 (HLA B*1501) of 1.7 nM and an IC50 (HLA B*1503) of 0.74 nM.
`CC(C)C[C@H](NC(=O)[C@H](CO)NC(=O)[C@H](CO)NC(=O)CNC(=O)[C@H](CO)NC(=O)[C@H](CCCCN)NC(=O)[C@H](C)NC(=O)[C@H](CCC(N)=O)NC(=O)[C@@H](N)CC(C)C)C(=O)O` [3102.1276] (H-LQAKSGSSL-OH) gave an IC50 (HLA B*1501) of 4.6 nM and an IC50 (HLA B*1503) of 0.33 nM.
`CC[C@H](C)[C@H](NC(=O)[C@H](CCSC)NC(=O)[C@H](CC(C)C)NC(=O)[C@H](CCSC)NC(=O)[C@@H](N)CCSC)C(=O)NCC(=O)N[C@@H](CC(N)=O)C(=O)N[C@@H](Cc1ccc(O)cc1)C(=O)N[C@@H](Cc1ccccc1)C(=O)O` [3102.1301] (H-MMLMIGNYF-OH) gave an IC50 (HLA B*1501) of 33 nM and an IC50 (HLA B*1503) of 0.2 nM.
With `CC(C)C[C@H](NC(=O)[C@H](C)N)C(=O)N[C@@H](CCCNC(=N)N)C(=O)N1CCC[C@H]1C(=O)N[C@@H](CO)C(=O)N[C@@H](CO)C(=O)N[C@@H](CCC(N)=O)C(=O)N[C@H](C(=O)N[C@@H](Cc1ccccc1)C(=O)O)C(C)C` [3102.1320] (H-ALRPSSQVF-OH) the IC50 (HLA B*1501) was 1.5 nM and the IC50 (HLA B*1503) was 0.095 nM.
`CC[C@H](C)[C@H](NC(=O)[C@H](Cc1c[nH]cn1)NC(=O)[C@H](CCC(N)=O)NC(=O)[C@H](CO)NC(=O)[C@H](CCC(=O)O)NC(=O)[C@@H](N)CC(C)C)C(=O)N[C@H](C(=O)N[C@@H](CO)C(=O)N[C@@H](Cc1ccccc1)C(=O)O)[C@@H](C)CC` [3102.1322] (H-LESQHIISF-OH) showed an IC50 (HLA B*1501) of 57 nM and an IC50 (HLA B*1503) of 28 nM.
`CC[C@H](C)[C@H](NC(=O)[C@H](CO)NC(=O)[C@@H](N)Cc1ccccc1)C(=O)N[C@@H](Cc1ccc(O)cc1)C(=O)N[C@@H](CO)C(=O)N[C@H](C(=O)N[C@@H](CO)C(=O)N[C@@H](CS)C(=O)N[C@@H](Cc1ccccc1)C(=O)O)C(C)C` [3102.1330] (H-FSIYSVSCF-OH) showed an IC50 (HLA B*1501) of 3.1 nM and an IC50 (HLA B*1503) of 7.6 nM.
For `CC(C)C[C@H](NC(=O)[C@H](CO)NC(=O)[C@@H]1CCCN1C(=O)[C@H](CO)NC(=O)[C@H](Cc1ccccc1)NC(=O)[C@H](CO)NC(=O)[C@@H](N)C(C)C)C(=O)N[C@H](C(=O)N[C@@H](Cc1ccccc1)C(=O)O)[C@@H](C)O` [3102.1333] (H-VSFSPSLTF-OH), the IC50 (HLA B*1501) was 1.3 nM and the IC50 (HLA B*1503) was 1.2 nM.
